Measurements reported in publication PMC7901646, “Pyrrolo[2′,3′:3,4]cyclohepta[1,2-d][1,2]oxazoles, a New Class of Antimitotic Agents Active against Multiple Malignant Cell Types” (Journal of Medicinal Chemistry, 2020).

Columns and labels:
Format in all cases: cell-based
HL-60(TB) = assay: NCI-60 screen; conditions: Homo sapiens, Leukemia
Experimental: (§1) All the synthesized compounds 51–76 were tested at a 10^–5 M concentration for their antitumor activity on the full NCI-60 panel comprising cancer cell lines derived from nine human cancer cell types (leukemia, non-small-cell lung, colon, central nervous system, melanoma, ovarian, renal, prostate, and breast).[50]

SF-268 = assay: NCI-60 screen; conditions: Homo sapiens, CNS Cancer
Experimental: as §1

TK-10 = assay: NCI-60 screen; conditions: Homo sapiens, Renal Cancer
Experimental: as §1

MOLT-4 = assay: NCI-60 screen; conditions: Homo sapiens, Leukemia
Experimental: as §1

SW-620 = assay: NCI-60 screen; conditions: Homo sapiens, Colon Cancer
Experimental: as §1

IGROV1 = assay: NCI-60 screen; conditions: Homo sapiens, IGROV-1; Ovarian Cancer
Experimental: as §1

M14 = assay: NCI-60 screen; conditions: Homo sapiens, Melanoma
Experimental: as §1

HCT-15 = assay: NCI-60 screen; conditions: Homo sapiens, Colon Cancer
Experimental: as §1

MDA-MB-231/ATCC = assay: NCI-60 screen; conditions: Homo sapiens, Breast Cancer
Experimental: as §1

SR = assay: NCI-60 screen; conditions: Homo sapiens, Leukemia
Experimental: as §1

SNB-19 = assay: NCI-60 screen; conditions: Homo sapiens, CNS Cancer
Experimental: as §1

HCT-116 = assay: NCI-60 screen; conditions: Homo sapiens, Colon Cancer
Experimental: as §1

RPMI-8226 = assay: NCI-60 screen; conditions: Homo sapiens, Leukemia
Experimental: as §1

PC-3 = assay: NCI-60 screen; conditions: Homo sapiens, Prostate Cancer
Experimental: as §1

COLO 205 = assay: NCI-60 screen; conditions: Homo sapiens, Colon Cancer
Experimental: as §1

NCI/ADR-RES = assay: NCI-60 screen; conditions: Homo sapiens, Ovarian Cancer
Experimental: as §1

HT29 = assay: NCI-60 screen; conditions: Homo sapiens, HT-29; Colon Cancer
Experimental: as §1

SK-OV-3 = assay: NCI-60 screen; conditions: Homo sapiens, Ovarian Cancer
Experimental: as §1

NCI-H460 = assay: NCI-60 screen; conditions: Homo sapiens, Non-Small-Cell Lung Cancer
Experimental: as §1

UACC-62 = assay: NCI-60 screen; conditions: Homo sapiens, Melanoma
Experimental: as §1

SF-295 = assay: NCI-60 screen; conditions: Homo sapiens, CNS Cancer
Experimental: as §1

CAKI-1 = assay: NCI-60 screen; conditions: Homo sapiens, Renal Cancer
Experimental: as §1

MCF7 = assay: NCI-60 screen; conditions: Homo sapiens, Breast Cancer
Experimental: as §1

MDA-MB-435 = assay: NCI-60 screen; conditions: Homo sapiens, Melanoma
Experimental: as §1

SU-DHL-10 (GCB DLBCL) = assay: MTT cell proliferation, lymphoma; conditions: Homo sapiens, SU-DHL10, 72 h
Procedure, shortened: (§2)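 Lymphoma lines in RPMI-1640 with 10% FBS seeded at 1 × 10^5 cells/mL and treated with 1 μM, or in triplicate with serial dilutions over 40–10 000 nM, for 72 h at 37 °C, 5% CO2. Viability by MTT (4 h), SDS lysis, absorbance at 570 nm with medium-only blanks.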

VL51 (MZL) = assay: MTT cell proliferation, lymphoma; conditions: Homo sapiens, 72 h
Procedure, shortened: as §2

HBL1 (ABC DLBCL) = assay: MTT cell proliferation, lymphoma; conditions: Homo sapiens, 72 h
Procedure, shortened: as §2

VL51 ibrutinib-resistant = assay: MTT cell proliferation, lymphoma; conditions: Homo sapiens, 72 h, of untreated cells, read-out: Proliferating cells (%)
Procedure, shortened: as §2

[1] = system: VL51 idelalisib-resistant; assay: MTT cell proliferation, lymphoma; conditions: Homo sapiens, 72 h, of untreated cells, read-out: Proliferating cells (%)
Procedure, shortened: as §2

MINO (MCL) = assay: MTT cell proliferation, lymphoma; conditions: Homo sapiens, 72 h
Procedure, shortened: as §2

LOX IMVI = assay: NCI-60 screen; conditions: Homo sapiens, Melanoma
Description: (§3) on the full NCI-60 panel comprising cancer cell lines derived from nine human cancer cell types (leukemia, non-small-cell lung, colon, central nervous system, melanoma, ovarian, renal, prostate, and breast).[50]

OVCAR-3 = assay: NCI-60 screen; conditions: Homo sapiens, Ovarian Cancer
Description: as §3

KM12 = assay: NCI-60 screen; conditions: Homo sapiens, Colon Cancer
Description: as §3

NCI-H522 = assay: NCI-60 screen; conditions: Homo sapiens, Non-Small-Cell Lung Cancer
Description: as §3

[2] = 1 μM, of untreated cells, read-out: Proliferating cells (%)

Work on `CCOC(=O)c1cc2c(n1Cc1cc(OC)c(OC)c(OC)c1)-c1oncc1CCC2` [Compound 67, Ethyl 9-(3,4,5-Trimethoxybenzyl)-4,5,6,9-tetrahydropyrrolo[2′,3′:3,4]cyclohepta[1,2-d][1,2]oxazole-8-carboxylate] yielded a GI50 (HL-60(TB)) of 190 nM, a GI50 (SF-268) of 520 nM and a GI50 (TK-10) of 64900 nM. The GI50 (MOLT-4) was 390 nM, the GI50 (SW-620) was 140 nM and the GI50 (IGROV1) was 60 nM. The GI50 (M14) was 150 nM, the GI50 (HCT-15) was 160 nM and the GI50 (MDA-MB-231/ATCC) was 480 nM. For the same molecule, the GI50 (SR) was 40 nM, the GI50 (SNB-19) was 560 nM and the GI50 (HCT-116) was 190 nM. The GI50 (RPMI-8226) was 380 nM, the GI50 (PC-3) was 170 nM and the GI50 (COLO 205) was 40 nM. The GI50 (NCI/ADR-RES) was 60 nM, the GI50 (HT29) was 70 nM and the GI50 (SK-OV-3) was 130 nM. It also gave a GI50 (NCI-H460) of 230 nM, a GI50 (UACC-62) of 50 nM and a GI50 (SF-295) of 440 nM. It also gave a GI50 (CAKI-1) of 70 nM, a GI50 (MCF7) of 40 nM and a GI50 (MDA-MB-435) of 20 nM. It also gave an activity at 1 µM (SU-DHL-10 (GCB DLBCL); [2]) of 11.2%, an IC50 (SU-DHL-10 (GCB DLBCL); MTT) of 600 nM and an activity at 1 µM (VL51 (MZL); [2]) of 40.5%. The IC50 (VL51 (MZL); MTT) was 500 nM, the activity at 1 µM (HBL1 (ABC DLBCL); [2]) was 24.2% and the IC50 (HBL1 (ABC DLBCL); MTT) was 900 nM. The activity at 1 µM (VL51 ibrutinib-resistant) was 40.4%, the activity at 1 µM [1] was 36.6% and the activity at 1 µM (MINO (MCL); [2]) was 8.9%. It also gave an IC50 (MINO (MCL); MTT) of 600 nM, a GI50 (LOX IMVI) of 410 nM and a GI50 (OVCAR-3) of 30 nM. For the same molecule, the GI50 (KM12) was 50 nM and the GI50 (NCI-H522) was 10 nM.
